Laboratory results taken from patent US11459323B2, “Monocyclic β-lactam compound for treating bacterial infection” (MEDSHINE DISCOVERY INC., priority 2018, dated 2022).
Converted amounts (≈) assume the structure as drawn. Like-named read-outs stand apart in the source and are kept apart here. Marks after values point to notes of the source that are not given here.

Legend:
[1] = system: P. aeruginosa ATCC 35151; assay: MIC by micro-liquid dilution method (CLSI); format: cell-based; conditions: Pseudomonas aeruginosa
[2] = system: A. baumannii ATCC 17978; assay: MIC by micro-liquid dilution method (CLSI); format: cell-based; conditions: Acinetobacter baumannii
[3] = system: E. coli ATCC 25922; assay: MIC by micro-liquid dilution method (CLSI); format: cell-based; conditions: Escherichia coli
[4] = system: E. coli NCTC 13476 (IMP-1 type); assay: MIC by micro-liquid dilution method (CLSI); format: cell-based; conditions: Escherichia coli
Text: (§1) Three strains of Klebsiella pneumonia, K. pneumoniae ATCC BAA-205 (TEM-1/SHV-1/SHV-12), K. pneumoniae ATCC BAA-1705 (KPC-2), K. pneumoniae ATCC BAA-2470 (NDM-1); three strains of Pseudomonas aeruginosa, P. aeruginosa NCTC13437 (VIM-10; VEB-1), P. aeruginosa PA 14 and P. aeruginosa ATCC 35151; four strains of Escherichia coli, E. coli NCTC 13476 (IMP-1 type), E. coli ATCC BAA-2523 (OXA-48), E. coli MG1655Δtol C, E. coli ATCC 25922; one strain of Acinetobacter baumannii, A. baumannii ATCC 17978 and one strain of Staphylococcus aureus, S. aureus NRS384 were used to determine the minimum inhibitory concentration (MIC) of the compounds by micro-liquid dilution method according to the Institute of Clinical and Laboratory Standard (CLSI) requirements.

[5] = system: E. coli MG1655Δtol C; assay: MIC by micro-liquid dilution method (CLSI); format: cell-based; conditions: Escherichia coli
Text: as §1

[6] = system: P. aeruginosa PA 14; assay: MIC by micro-liquid dilution method (CLSI); format: cell-based; conditions: Pseudomonas aeruginosa, PA14
Text: as §1

[7] = system: E. coli ATCC BAA-2523 (OXA-48); assay: MIC by micro-liquid dilution method (CLSI); format: cell-based; conditions: Escherichia coli, ATCCBAA2523
Text: as §1

[8] = system: K. pneumoniae ATCC BAA-1705 (KPC-2); assay: MIC by micro-liquid dilution method (CLSI); format: cell-based, Klebsiella pneumonia; conditions: Klebsiella pneumoniae, ATCCBAA1705
[9] = system: K. pneumoniae ATCC BAA-2470 (NDM-1); assay: MIC by micro-liquid dilution method (CLSI); format: cell-based, Klebsiella pneumonia; conditions: Klebsiella pneumoniae, ATCCBAA2470
[10] = system: K. pneumoniae ATCC BAA-205 (TEM-1/SHV-1/SHV-12); assay: MIC by micro-liquid dilution method (CLSI); format: cell-based, Klebsiella pneumonia; conditions: Klebsiella pneumoniae, ATCCBAA205
[11] = Pharmacokinetic experiment of the compounds in mice; format: in vivo; conditions: mouse, plasma, 2 mg/kg, Male CD-1 mice, fasting, 2 mpk; for Vd / clearance / AUC(0-t) / half-life / C0: intravenous injection; for Vd: read-out: Apparent distribution volume Vdss; for clearance: read-out: Clearance rate Cl; for AUC(0-t): read-out: Exposure AUC0-last; for half-life: read-out: Half-life period T1/2 (converted); for C0: read-out: Initial concentration C0; for bioavailability / Cmax: second section of Table 7 (intravenous injection); for Cmax: read-out: Maximum concentration Cmax
Method: In this experiment, six CD-1 mice (males) were divided into 2 groups (2 groups) according to their similar body weight. Group 1 and Group 2 were given respectively a single intravenous and intraperitoneal injection of the compounds of embodiment 13, embodiment 17, embodiment 32 and embodiment 34, each compound was at 2 mg/kg. The vehicles for intravenous and intraperitoneal injections were 5% dimethyl sulfoxide/95% water (10% polyoxyethylene castor oil), K2-EDTA (anticoagulant).
About 0.02 mL of blood samples from the saphenous vein were collected from all experimental animals, and the actual blood collection time was recorded. In this experiment, the deviation between the actual blood collection time and the theoretical blood collection time was in accordance with the regulations (the deviation of time points within 1 hour after administration were within 1 minute, and other deviations were within 5% of the theoretical time). After the blood samples were collected, they were immediately transferred to labeled centrifuge tubes containing K2 EDTA (0.5 M), followed by centrifugation (3,000 g, 4° C., 15 minutes) and the plasma was collected. The plasma was transferred to pre-cooled centrifuge tubes, quickly frozen in dry ice, and stored in an ultra-low temperature refrigerator at −60° C. or lower until LC-MS/MS analysis.

[12] = system: Acinetobacter baumannii ATCC-BAA-1605; assay: MIC on Acinetobacter baumannii strains; format: cell-based; conditions: ATCCBAA1605, ATCC-BAA-1605, read-out: MIC
Text: (§2) Twelve strains of Acinetobacter baumannii, A. baumannii ATCC 17978 (ATCC-BAA-1605, ATCC-BAA-1789, ATCC-BAA-1790, ATCC-BAA-1791, ATCC-BAA-1792, ATCC-BAA-1793, ATCC-BAA-1794, ATCC-BAA-1795, ATCC-BAA-1799, ATCC-BAA-1800, ATCC 19606, ATCC 17978) were used to determine the minimum inhibitory concentration (MIC) of the compounds by micro-liquid dilution method according to the Institute of Clinical and Laboratory Standard (CLSI) requirements.

[13] = system: Acinetobacter baumannii ATCC-BAA-1791; assay: MIC on Acinetobacter baumannii strains; format: cell-based; conditions: ATCCBAA1791
Text: as §2

[14] = system: Acinetobacter baumannii ATCC-BAA-1793; assay: MIC on Acinetobacter baumannii strains; format: cell-based; conditions: ATCCBAA1793, ATCC-BAA-1793, read-out: MIC
Text: as §2

[15] = system: Pseudomonas aeruginosa PA14; assay: Lungs of immunosuppressed mice infected with Pseudomonas aeruginosa (1), lung bacterial load; format: in vivo; conditions: 24 hours after infection, day, ip at 2 h, 4 h, 6 h, 8 h
Method: Pseudomonas aeruginosa PA14. 64 mice were intraperitoneally injected with 150 mg/kg cyclophosphamide on the first day and the fourth day to give immunosuppressed mice. […] [table] The mice were injected with 50 μL of bacterial solution (2×10^3 CFU) through the airway. 2 hours after the infection, 4 mice in the model group was sacrificed by removing cervical vertebra. Two hours after infection, the drugs were administered by groups, and the mice were administered intraperitoneally once at 2 hours, 4 hours, 6 hours, and 8 hours, a total of 4 times. Mice of each group were sacrificed by removing cervical vertebra 24 hours after infection, lung and kidney tissues were taken aseptically and put into sterilized tissue homogenate tubes, weighed, and an appropriate amount of normal saline (NS) was added, the mixture was homogenized by a homogenizer for 1 min, the lung tissues of the model group were diluted 10^4, 10^5, 10^6 times, the lung tissues of each administration group were diluted 10, 100 times, the kidney tissues of the model group were diluted 10^2, […], 10^4 times, and the lung tissues of each administration group were diluted 10 times, the obtained mixtures were coated on TSA plates using spiral coater, then incubated at 37° C. overnight, and the CFU was counted with a colony counter. Graphpad Prism mapping software was used to make scatter plots of lung tissue CFU. SPSS19.0 software was used to count CFU and average body weight, and analysis of variance was used to analyze differences between groups.

[16] = A. baumannii ATCC17978, read-out: MIC
[17] = E. coli ATCC25922, read-out: MIC
[18] = E. coli NCTC13476, read-out: MIC
[19] = P. aeruginosa PA 14, read-out: MIC
[20] = E. coli ATCCBAA-2523, read-out: MIC
[21] = K. pneumoniae ATCCBAA-1705, read-out: MIC
[22] = K. pneumoniae ATCCBAA-2470, read-out: MIC
[23] = K. pneumoniae ATCCBAA-205, read-out: MIC

| Structure (SMILES) | Vd [11] [L/kg] | clearance [11] [mL/min/kg] | AUC(0-t) [11] [µM·h] | half-life [11] [min] | C0 [11] [µM] | bioavailability [11] [%] | Cmax [11] [µM] | MIC [2, 16] [µg/mL] | MIC [4, 18] [µg/mL] | MIC [5] [µg/mL] | MIC [6, 19] [µg/mL] | MIC [8, 21] [µg/mL] | MIC [9, 22] [µg/mL] | MIC [10, 23] [µg/mL] | MIC ([1]; ATCC35151) [µg/mL] | MIC [7] [µg/mL] | further results |
| --- | --- | --- | --- | --- | --- | --- | --- | --- | --- | --- | --- | --- | --- | --- | --- | --- | --- |
| CC1(C)[C@H](NC(=O)/C(=N\OCCOc2ccc3c(c2)CN(C(=N)N)CC3)c2csc(N)n2)C(=O)N1OS(=O)(=O)O [Compound 10] |  |  |  |  |  |  |  | 4 (≈ 6.7 µM) | 2 (≈ 3.35 µM) | ≤ 0.125 | 8 (≈ 13.4 µM) | 4 (≈ 6.7 µM) | 4 (≈ 6.7 µM) | 16 (≈ 26.8 µM) |  |  | MIC ([1]; P. aeruginosa ATCC35151, read-out: MIC): 0.25 µg/mL (≈ 0.419 µM); MIC [3, 17]: 1 µg/mL (≈ 1.68 µM); MIC [7, 20]: 0.25 µg/mL (≈ 0.419 µM) |
| CC1(C)[C@H](NC(=O)/C(=N\OCCOc2ccc3c(c2)CCN(C(=N)N2CCNCC2)C3)c2csc(N)n2)C(=O)N1OS(=O)(=O)O [Compound 11] |  |  |  |  |  |  |  | 2 (≈ 3 µM) | 0.5 (≈ 0.751 µM) | ≤ 0.125 | 4 (≈ 6.01 µM) | 1 (≈ 1.5 µM) | 1 (≈ 1.5 µM) | 16 (≈ 24 µM) | ≤ 0.125 | ≤ 0.125 | MIC [3, 17]: 0.25 µg/mL (≈ 0.376 µM) |
| CC1(C)[C@H](NC(=O)/C(=N\OCCOc2ccc3c(c2)CCN(C(=N)NC2CCNCC2)C3)c2csc(N)n2)C(=O)N1OS(=O)(=O)O [Compound 12] |  |  |  |  |  |  |  | 0.5 (≈ 0.736 µM) | 0.25 (≈ 0.368 µM) | ≤ 0.125 | 2 (≈ 2.94 µM) | 1 (≈ 1.47 µM) | 1 (≈ 1.47 µM) | 16 (≈ 23.5 µM) | ≤ 0.125 | ≤ 0.125 | MIC ([3]; ATCC25922): ≤ 0.125 µg/mL |
| CC1(C)[C@H](NC(=O)/C(=N\OCCOc2ccc3c(c2)CN(C(=N)NCCCN)C3)c2csc(N)n2)C(=O)N1OS(=O)(=O)O [Compound 13] | 0.281 | 8.51 | 6.73 | 28.6 | 18.9 | 88.4 | 5.76 |  |  |  |  |  |  |  |  |  |  |
| CC1(C)[C@H](C(=O)O)N2C(=O)C[C@H]2S1(=O)=O [Sulbactam, reference compound] |  |  |  |  |  |  |  |  |  | 32 (≈ 137 µM) |  |  |  |  | 64 (≈ 274 µM) | 64 (≈ 274 µM) | MIC ([2]; ATCC17978): 2 µg/mL (≈ 8.57 µM); MIC ([3]; ATCC25922): 64 µg/mL (≈ 274 µM); MIC ([4]; NCTC13476): > 128 µg/mL; MIC [6]: 8 µg/mL (≈ 34.3 µM); MIC [8]: > 128 µg/mL; MIC [9]: > 128 µg/mL; MIC [10]: 64 µg/mL (≈ 274 µM) |

Second part, led by results:

| Vd [11] [L/kg] | clearance [11] [mL/min/kg] | AUC(0-t) [11] [µM·h] | half-life [11] [min] | C0 [11] [µM] | bioavailability [11] [%] | Cmax [11] [µM] | Structure (SMILES) | MIC [2, 16] [µg/mL] | MIC [4, 18] [µg/mL] | MIC [5] [µg/mL] | MIC [6, 19] [µg/mL] | MIC [8, 21] [µg/mL] | MIC [9, 22] [µg/mL] | MIC [10, 23] [µg/mL] | MIC ([1]; ATCC35151) [µg/mL] | MIC [7] [µg/mL] | further results |
| --- | --- | --- | --- | --- | --- | --- | --- | --- | --- | --- | --- | --- | --- | --- | --- | --- | --- |
| 0.237 | 4.6 | 11 | 35.8 | 17 | 131 | 10.6 | CC1(C)[C@H](NC(=O)/C(=N\OCCOc2ccc3c(c2)CN(C(=N)N(CCCN)CCCN)C3)c2csc(N)n2)C(=O)N1OS(=O)(=O)O [Compound 17] | ≤ 0.125 |  |  | 0.5 (≈ 0.718 µM) | 0.25 (≈ 0.359 µM) | 0.25 (≈ 0.359 µM) | 2 (≈ 2.87 µM) |  |  | MIC [12]: 4 µg/mL (≈ 5.74 µM); MIC [13]: 0.25 µg/mL (≈ 0.359 µM); MIC [14]: 4 µg/mL (≈ 5.74 µM); MIC [7, 20]: ≤ 0.125 µg/mL |
| 0.0636 | 1.57 | 5.77 | 30.8 | 11.3 | 140 | 8 | CC1(C)[C@H](NC(=O)/C(=N\O[C@@H](COc2ccc3c(c2)CN(C(=N)N(CCCN)CCCN)C3)C(=O)O)c2csc(N)n2)C(=O)N1OS(=O)(=O)O [Compound 32] |  |  |  |  |  |  |  |  |  | LOG10-of bacterial load ([15]; total dosage 60 mg/kg): 0**; LOG10-of bacterial load ([15]; total dosage 120 mg/kg): 0**; LOG10-of bacterial load ([15]; total dosage 200 mg/kg): 0** |
| 0.274 | 10.4 | 4.95 | 22.6 | 14.4 | 93.3 | 5.55 | CC1(C)[C@H](NC(=O)/C(=N\O[C@@H](COc2ccc3c(c2)CN(C(=N)NCCCN)C3)C(=O)O)c2csc(N)n2)C(=O)N1OS(=O)(=O)O [Compound 34] |  |  |  |  |  |  |  |  |  | LOG10-of bacterial load ([15]; total dosage 60 mg/kg): 0**; LOG10-of bacterial load ([15]; total dosage 120 mg/kg): 0**; LOG10-of bacterial load ([15]; total dosage 200 mg/kg): 1.10 ± 1.75 |
